Test results taken from patent US20260069584A1, “METHODS OF TREATING CHRONIC MYELOID LEUKEMIA USING THE TYROSINE KINASE INHIBITOR VODOBATINIB” (Sun Pharma Advanced Research Company Ltd., priority 2022, published 2026).

Assay: Part B: safety, treatment-emergent adverse events, DLT and MTD
Type: in vivo
From the text: For the purpose of the present invention, the adverse events were graded as per the National Cancer Institute's, Common Terminology Criteria for Adverse Events (NCI-CTCAE) Version 4.03 and Version 5.0 (https://evs.nci.nih.gov/ftp1/CTCAE/About.html). It is a descriptive terminology which can be utilized for Adverse Event (AE) reporting.
AEs were graded as per NCI-CTCAE Version 5.0. In the present study, along with others most common AEs for which patients were monitored were thrombocytopenia, neutropenia and anemia, any AE reported by the patient after the completion of AE collection period and considered related to the study drug was reported.
Dose Limiting Toxicity (DLT) is defined as the occurrence of any of the following unless clearly and incontrovertibly related to the underlying disease. The hematological DLTs were defined as per the Phase of CML: • a) Grade 3 or higher, or other non-hematological toxicity, including nausea, vomiting and diarrhea, and refractory to standard antiemetic therapy except alopecia and nail disorders; • b) Missed ≥25% of doses over 28 days due to toxicity in Cycle 1; and • c) Any grade of toxicity requiring dose reduction or discontinuation of IMP within the 28-days DLT assessment period (Cycle 1).
Safety Parameters: Parts B and C: Descriptive summaries were provided for the safety variables collected. Continuous variables were summarized using mean, standard deviation, minimum, median, and maximum. Categorical variables were summarized using frequency counts and percentages. For time-to-event variables, other percentiles were presented. In addition, summaries of AEs by intensity, seriousness, frequency, and relationship to IMP are presented. Adverse events (AE) s were coded using the Medical Dictionary for Regulatory Activities (MedDRA) and summarized by System Organ Class (SOC) and Preferred Term (PT).
In this study, the dose-escalation cohort started with an accelerated titration study design (ATD) and shifted to a 3±3 design when subjects in the preceding ATD cohort experienced either grade 2 or higher adverse events (AEs) or dose-limiting toxicity (DLT) during Cycle 1 that was not clearly and incontrovertibly related to the underlying disease or concomitant medications. The DLT period consisted of 28 days (Cycle 1). Subjects experiencing DLTs were managed with dose delays and/or discontinuation and continued in the study until disease progression. Decisions to advance to a succeeding dose level occurred after the evaluation of safety and tolerability data for a given dose level.
For the cohorts, where the 3±3 design applies, 3 subjects were enrolled initially. If 2 of these subjects experienced a Grade 2 or more toxicity (that was not clearly and incontrovertibly related to the underlying disease or concomitant medications), subsequent cohorts were escalated according to smaller increments. Further, if there were no DLTs in the first 3 subjects, dose escalation to the next higher dose level was allowed to proceed. If 1 of the 3 subjects experienced a DLT, that dose level was expanded to 6 subjects (3 additional subjects were enrolled). If 2 subjects at a given dose level experienced a DLT, the MTD was considered to have been exceeded. The next lower dose level was expanded to 6 subjects, or if 6 subjects had already been enrolled and no more than 1 of the 6 subjects experienced a DLT, then this lower dose level was considered the MTD. Additional subjects were enrolled in dose escalation cohorts for further assessment of safety and efficacy of the compound of Formula 1 at doses that were tolerated (i.e., doses that have <2 DLTs in 6 enrolled subjects or <1 DLT in 3 enrolled subjects). Thus 204 mg was arrived at as MTD. A subject experiencing a DLT was allowed to continue therapy with a reduced dose. Subjects who experienced a DLT and recovered were treated at the next lower dose level until disease progression or other events requiring further dose reduction existed. […]

Structure (SMILES): Cc1ccc(C(=O)NNC(=O)c2c(C)cccc2Cl)cc1C#Cc1cnc2ccccc2c1 [compound of Formula I, N′-(2-chloro-6-methylbenzoyl)-4-methyl-3-[2-(3-quinolyl)ethynyl]-benzohydrazide]
- anemia (grade 3 or 4): 13%
- diarrhea (grade 3 or 4): 2%
- thrombocytopenia (grade 3 or 4): 18.8%
- deaths during the study (human, in vivo): 5
- daily doses at which dose-limiting toxicities were present (human, in vivo, 28 days): 240 mg
- dose modification (of patients): 20.7%
- temporary dose interruptions (of patients): 37.7%
- MTD (maximum tolerated dose) (oral, once daily): 204 mg
- deaths considered related to the compound (out of 5 deaths): 1
- TEAEs, any grade (overall 53 patients): 96.2%
- grade 3 or 4 TEAEs (overall 53 patients): 64.1%
- highest efficacious and tolerable daily dose (patients with prior TKI exposure, mutations and ACAs): 204 mg
- All TEAEs, Any grade (≤2 prior TKIs (N = 18)): 16 No of pts
- All TEAEs, Grade 3/4 (≤2 prior TKIs (N = 18)): 6 No of pts
- Amylase increased, Any grade (≤2 prior TKIs (N = 18)): 0 No of pts
- Amylase increased, Grade 3/4 (≤2 prior TKIs (N = 18)): 0 No of pts
- Anemia, Any grade (≤2 prior TKIs (N = 18)): 2 No of pts
- Anemia, Grade 3/4 (≤2 prior TKIs (N = 18)): 2 No of pts
- Back pain, Any grade (≤2 prior TKIs (N = 18)): 1 No of pts
- Back pain, Grade 3/4 (≤2 prior TKIs (N = 18)): 0 No of pts
- Constipation, Any grade (≤2 prior TKIs (N = 18)): 2 No of pts
- Constipation, Grade 3/4 (≤2 prior TKIs (N = 18)): 0 No of pts
- Cough, Any grade (≤2 prior TKIs (N = 18)): 3 No of pts
- Cough, Grade 3/4 (≤2 prior TKIs (N = 18)): 0 No of pts
- Death, Any grade (≤2 prior TKIs (N = 18)): 3 No of pts
- Death, Grade 3/4 (≤2 prior TKIs (N = 18)): 0 No of pts
- Decreased appetite, Any grade (≤2 prior TKIs (N = 18)): 1 No of pts
- Decreased appetite, Grade 3/4 (≤2 prior TKIs (N = 18)): 0 No of pts
- Diarrhoea, Any grade (≤2 prior TKIs (N = 18)): 1 No of pts
- Diarrhoea, Grade 3/4 (≤2 prior TKIs (N = 18)): 0 No of pts
- Fatigue, Any grade (≤2 prior TKIs (N = 18)): 2 No of pts
- Fatigue, Grade 3/4 (≤2 prior TKIs (N = 18)): 0 No of pts
- Headache, Any grade (≤2 prior TKIs (N = 18)): 1 No of pts
- Headache, Grade 3/4 (≤2 prior TKIs (N = 18)): 0 No of pts
- Lipase increased, Any grade (≤2 prior TKIs (N = 18)): 0 No of pts
- Lipase increased, Grade 3/4 (≤2 prior TKIs (N = 18)): 0 No of pts
- Myalgia, Any grade (≤2 prior TKIs (N = 18)): 1 No of pts
- Myalgia, Grade 3/4 (≤2 prior TKIs (N = 18)): 0 No of pts
- Nasopharyngitis, Any grade (≤2 prior TKIs (N = 18)): 3 No of pts
- Nasopharyngitis, Grade 3/4 (≤2 prior TKIs (N = 18)): 0 No of pts
- Nausea, Any grade (≤2 prior TKIs (N = 18)): 0 No of pts
- Nausea, Grade 3/4 (≤2 prior TKIs (N = 18)): 0 No of pts
- Neutropenia, Any grade (≤2 prior TKIs (N = 18)): 2 No of pts
- Neutropenia, Grade 3/4 (≤2 prior TKIs (N = 18)): 2 No of pts
- Pruritis, Any grade (≤2 prior TKIs (N = 18)): 2 No of pts
- Pruritis, Grade 3/4 (≤2 prior TKIs (N = 18)): 0 No of pts
- Pyrexia, Any grade (≤2 prior TKIs (N = 18)): 2 No of pts
- Pyrexia, Grade 3/4 (≤2 prior TKIs (N = 18)): 0 No of pts
- Rhinitis, Any grade (≤2 prior TKIs (N = 18)): 2 No of pts
- Rhinitis, Grade 3/4 (≤2 prior TKIs (N = 18)): 0 No of pts
- SAEs, Any grade (≤2 prior TKIs (N = 18)): 6 No of pts
- SAEs, Grade 3/4 (≤2 prior TKIs (N = 18)): 2 No of pts
- TEAEs Leading to drug withdrawal, Any grade (≤2 prior TKIs (N = 18)): 3 No of pts
- TEAEs Leading to drug withdrawal, Grade 3/4 (≤2 prior TKIs (N = 18)): 0 No of pts
- TEAEs Related to comp of Formula I, Any grade (≤2 prior TKIs (N = 18)): 12 No of pts
- TEAEs Related to comp of Formula I, Grade 3/4 (≤2 prior TKIs (N = 18)): 3 No of pts
- TEAEs: Dose discontinued and restarted, Any grade (≤2 prior TKIs (N = 18)): 5 No of pts
- TEAEs: Dose discontinued and restarted, Grade 3/4 (≤2 prior TKIs (N = 18)): 2 No of pts
- TEAEs: Dose modifications, Any grade (≤2 prior TKIs (N = 18)): 1 No of pts
- TEAEs: Dose modifications, Grade 3/4 (≤2 prior TKIs (N = 18)): 1 No of pts
- Thrombocytopenia, Any grade (≤2 prior TKIs (N = 18)): 7 No of pts
- Thrombocytopenia, Grade 3/4 (≤2 prior TKIs (N = 18)): 3 No of pts
- Vomiting, Any grade (≤2 prior TKIs (N = 18)): 0 No of pts
- Vomiting, Grade 3/4 (≤2 prior TKIs (N = 18)): 0 No of pts
- All TEAEs, Any grade (≥3 prior TKIs (N = 35)): 35 No of pts
- All TEAEs, Grade 3/4 (≥3 prior TKIs (N = 35)): 28 No of pts
- Amylase increased, Any grade (≥3 prior TKIs (N = 35)): 5 No of pts
- Amylase increased, Grade 3/4 (≥3 prior TKIs (N = 35)): 4 No of pts
- Anemia, Any grade (≥3 prior TKIs (N = 35)): 9 No of pts
- Anemia, Grade 3/4 (≥3 prior TKIs (N = 35)): 5 No of pts
- Back pain, Any grade (≥3 prior TKIs (N = 35)): 6 No of pts
- Back pain, Grade 3/4 (≥3 prior TKIs (N = 35)): 0 No of pts
- Constipation, Any grade (≥3 prior TKIs (N = 35)): 6 No of pts
- Constipation, Grade 3/4 (≥3 prior TKIs (N = 35)): 0 No of pts
- Cough, Any grade (≥3 prior TKIs (N = 35)): 8 No of pts
- Cough, Grade 3/4 (≥3 prior TKIs (N = 35)): 0 No of pts
- Death, Any grade (≥3 prior TKIs (N = 35)): 2 No of pts
- Death, Grade 3/4 (≥3 prior TKIs (N = 35)): 0 No of pts
- Decreased appetite, Any grade (≥3 prior TKIs (N = 35)): 5 No of pts
- Decreased appetite, Grade 3/4 (≥3 prior TKIs (N = 35)): 0 No of pts
- Diarrhoea, Any grade (≥3 prior TKIs (N = 35)): 11 No of pts
- Diarrhoea, Grade 3/4 (≥3 prior TKIs (N = 35)): 1 No of pts
- Fatigue, Any grade (≥3 prior TKIs (N = 35)): 5 No of pts
- Fatigue, Grade 3/4 (≥3 prior TKIs (N = 35)): 0 No of pts
- Headache, Any grade (≥3 prior TKIs (N = 35)): 7 No of pts
- Headache, Grade 3/4 (≥3 prior TKIs (N = 35)): 0 No of pts
- Lipase increased, Any grade (≥3 prior TKIs (N = 35)): 5 No of pts
- Lipase increased, Grade 3/4 (≥3 prior TKIs (N = 35)): 4 No of pts
- Myalgia, Any grade (≥3 prior TKIs (N = 35)): 6 No of pts
- Myalgia, Grade 3/4 (≥3 prior TKIs (N = 35)): 0 No of pts
- Nasopharyngitis, Any grade (≥3 prior TKIs (N = 35)): 3 No of pts
- Nasopharyngitis, Grade 3/4 (≥3 prior TKIs (N = 35)): 0 No of pts
- Nausea, Any grade (≥3 prior TKIs (N = 35)): 8 No of pts
- Nausea, Grade 3/4 (≥3 prior TKIs (N = 35)): 0 No of pts
- Neutropenia, Any grade (≥3 prior TKIs (N = 35)): 6 No of pts
- Neutropenia, Grade 3/4 (≥3 prior TKIs (N = 35)): 5 No of pts
- Pruritis, Any grade (≥3 prior TKIs (N = 35)): 4 No of pts
- Pruritis, Grade 3/4 (≥3 prior TKIs (N = 35)): 0 No of pts
- Pyrexia, Any grade (≥3 prior TKIs (N = 35)): 6 No of pts
- Pyrexia, Grade 3/4 (≥3 prior TKIs (N = 35)): 1 No of pts
- Rhinitis, Any grade (≥3 prior TKIs (N = 35)): 4 No of pts
- Rhinitis, Grade 3/4 (≥3 prior TKIs (N = 35)): 0 No of pts
- SAEs, Any grade (≥3 prior TKIs (N = 35)): 14 No of pts
- SAEs, Grade 3/4 (≥3 prior TKIs (N = 35)): 10 No of pts
- TEAEs Leading to drug withdrawal, Any grade (≥3 prior TKIs (N = 35)): 3 No of pts
- TEAEs Leading to drug withdrawal, Grade 3/4 (≥3 prior TKIs (N = 35)): 2 No of pts
- TEAEs Related to comp of Formula I, Any grade (≥3 prior TKIs (N = 35)): 23 No of pts
- TEAEs Related to comp of Formula I, Grade 3/4 (≥3 prior TKIs (N = 35)): 11 No of pts
- TEAEs: Dose discontinued and restarted, Any grade (≥3 prior TKIs (N = 35)): 15 No of pts
- TEAEs: Dose discontinued and restarted, Grade 3/4 (≥3 prior TKIs (N = 35)): 10 No of pts
- TEAEs: Dose modifications, Any grade (≥3 prior TKIs (N = 35)): 10 No of pts
- TEAEs: Dose modifications, Grade 3/4 (≥3 prior TKIs (N = 35)): 5 No of pts
- Thrombocytopenia, Any grade (≥3 prior TKIs (N = 35)): 17 No of pts
- Thrombocytopenia, Grade 3/4 (≥3 prior TKIs (N = 35)): 7 No of pts
- Vomiting, Any grade (≥3 prior TKIs (N = 35)): 7 No of pts
- Vomiting, Grade 3/4 (≥3 prior TKIs (N = 35)): 0 No of pts
